Converted amounts (≈) assume the structure as drawn.
How the values were obtained:
Format in all cases: cell-based
[1] = tested on: membrane permeabilized E. coli; settings: for enhancement of the activity of ciprofloxacin: at 25 μM
E. coli ΔrecB strains = tested on: E. coli ΔrecB strains
[2] = tested on: E. coli MG1655 loss of function strains; experiment: microbe, parasite or virus in culture
[3] = tested on: E. coli strain MG1655 and mutated strains; experiment: microbe, parasite or virus in culture
E. coli wild-type = tested on: E. coli wild-type
[4] = tested on: P. aeruginosa strains RTC1014-RTC1019
[5] = tested on: E. coli strains RTC0141-RTC0148

NCCCCCCNc1ccnc2cc(Cl)ccc12 [Formula III]
ciprofloxacin sensitization [1]: enhanced ciprofloxacin sensitivity

Cn1c2ccccc2n2c3ncccc3c(=O)c(C#N)c12 [Formula IIb]
enhancement of the activity of ciprofloxacin [1]: enhanced the activity of ciprofloxacin

Cn1c2ccccc2n2c3cnccc3c(=O)c(C#N)c12 [Formula IIc]
enhancement of the activity of ciprofloxacin [1]: enhanced the activity of ciprofloxacin

Nc1ccc2noc3c2c1C(=O)c1ccccc1-3 [Formula Ia]
MIC shift in ciprofloxacin responsiveness [1]: 10 ×

CO[C@@]12[C@H](COC(N)=O)C3=C(C(=O)C(C)=C(N)C3=O)N1C[C@@H]1N[C@@H]12 [Mitomycin C]
Mitomycin C MIC lower compared to recB+ strains (E. coli ΔrecB strains): about 8 fold

O=C(O)c1cn(C2CC2)c2cc(N3CCNCC3)c(F)cc2c1=O [ciprofloxacin]
ciprofloxacin MIC, gyrA S83Δ [2]: 0.25 µg/mL
MIC ([2]; Escherichia coli, MG1655, read-out: ciprofloxacin MIC, gyrA S83L): 0.45 µg/mL (≈ 1.36 µM)
ciprofloxacin MIC, gyrA S83Δ [3]: 0.25 µg/mL
MIC ([3]; Escherichia coli, MG1655, read-out: ciprofloxacin MIC): < 0.001 µg/mL
cells killed (E. coli wild-type): 99%

B1: lambda gam: protein used by λ phage to inhibit E. coli RecB; overexpressed from an arabinose-inducible vector (protein, UniProt P03702 1-138, looked up)
Host-nuclease inhibitor …: MDINTETEIKQKHSLTPFPVFLISPAFRGRYFHSYFRSSAMNAYYIQDRLEAQSWARHYQQLAREEKEAELADDMEKGLPQHLFESLCIDHLQRHGASKKSITRAFDDDVEFQERMAEHIRYMVETIAHHQVDIDSEV
decrease in the ciprofloxacin MIC on overexpression of lambda gam [4]: 2-4 fold
effect of lambda gam overexpression on ciprofloxacin sensitivity [4]: no effect
decrease in the ciprofloxacin IC50 on overexpression of lambda gam [5]: 5-8 fold
effect of lambda gam overexpression on ciprofloxacin sensitivity [5]: no effect

From patent US20070033061A1 (priority 2005, published 2007)
